US4667027A, “Cephem compounds and their production” (Takeda Chemical Industries, Ltd., priority 1984, dated 1987)
Values after ≈ are worked out from the molar mass of the structure shown.

Tested on: Escherichia coli PG8
Assay: β-lactamase stability test, growth inhibition zone, no β-lactamase added
Format: cell-based
Conditions: β-lactamase not added; test organism Escherichia coli PG8; drug 100 μg/ml; nutrient agar pH 7.0; read-out: diameter of growth inhibition zone
Source text: (§1) TAN-591A, B, C are stable to various β-lactamases. The results of stability test of the antibiotic to two β-lactamases employing Escherichia coli PG8 as a test organism are shown in Table 5. […]

Structure (SMILES) | zone of inhibition at 100 µg/mL
N=C(N)NCCCC(NC(=O)C(CO)NC(=O)C(N)CO)C(O)CC(=O)OCC1=C(C(=O)O)N2C(=O)C(NC=O)(NC(=O)CCCC(N)C(=O)O)C2SC1 (stereo not drawn) [TAN-592B] | 29 mm
CC1(C)S[C@@H]2[C@H](NC(=O)Cc3ccccc3)C(=O)N2[C@H]1C(=O)O [PCG, benzylpenicillin, reference compound] | 22 mm

Tested on: Staphylococcus aureus FDA 209P
Assay: Antimicrobial spectrum, minimal inhibitory concentration (agar dilution)
Format: cell-based
Conditions: FDA209P, hydrochloride, inoculum 1 loopful of about 10^6/ml
Source text: (§2) *Culture medium: 17.5 g of Bacto antibiotic medium 3 (Difco), 5 g of Bact
(§3) yeast extract (Difco), 20 g of Bacto agar (Difco), 1 l of distilled water
(§4) The amount of inoculated microorganism: 1 loopful of about 10^6 /ml o
(§5) microorganism suspension.
(§6) *Medium: Bacto antibiotic medium (Difco) 17.5 g, Bacto yeast extract
(§7) (Difco) 5 g, Bacto agar (Difco) 20 g, distilled water 1 l, pH not

Structure (SMILES) | MIC
N=C(N)NCCCC(NC(=O)C(CO)NC(=O)C(N)CO)C(O)CC(=O)OCC1=C(C(=O)O)N2C(=O)C(NC=O)(NC(=O)CCCC(N)C(=O)O)C2SC1 (stereo not drawn) [TAN-592B] | > 50 µg/mL

Tested on: Salmonella typhimurium IFO 12529
Assay: as above
Format: cell-based
Conditions: Salmonella enterica, hydrochloride, inoculum 1 loopful of about 10^6/ml
Source text: as §2, §3, §4, §5, §6, §7

Structure (SMILES) | MIC
N=C(N)NCCCC(NC(=O)C(CO)NC(=O)C(N)CO)C(O)CC(=O)OCC1=C(C(=O)O)N2C(=O)C(NC=O)(NC(=O)CCCC(N)C(=O)O)C2SC1 (stereo not drawn) [TAN-592B] | 25 µg/mL (≈ 31.6 µM)

Tested on: Klebsiella pneumoniae IFO 3317
Assay: as above
Format: cell-based
Conditions: IFO3317, hydrochloride, inoculum 1 loopful of about 10^6/ml
Source text: as §2, §3, §4, §5, §6, §7

Structure (SMILES) | MIC
N=C(N)NCCCC(NC(=O)C(CO)NC(=O)C(N)CO)C(O)CC(=O)OCC1=C(C(=O)O)N2C(=O)C(NC=O)(NC(=O)CCCC(N)C(=O)O)C2SC1 (stereo not drawn) [TAN-592B] | 50 µg/mL (≈ 63.2 µM)

Tested on: Bacillus subtilis NIHJ PCI 219
Assay: as above
Format: cell-based
Conditions: hydrochloride, inoculum 1 loopful of about 10^6/ml
Source text: as §2, §3, §4, §5, §6, §7

Structure (SMILES) | MIC
N=C(N)NCCCC(NC(=O)C(CO)NC(=O)C(N)CO)C(O)CC(=O)OCC1=C(C(=O)O)N2C(=O)C(NC=O)(NC(=O)CCCC(N)C(=O)O)C2SC1 (stereo not drawn) [TAN-592B] | 12.5 µg/mL (≈ 15.8 µM)

Tested on: Escherichia coli NIHJ JC-2
Assay: as above
Format: cell-based
Conditions: NIHJJC2, hydrochloride, inoculum 1 loopful of about 10^6/ml
Source text: as §2, §3, §4, §5, §6, §7

Structure (SMILES) | MIC
N=C(N)NCCCC(NC(=O)C(CO)NC(=O)C(N)CO)C(O)CC(=O)OCC1=C(C(=O)O)N2C(=O)C(NC=O)(NC(=O)CCCC(N)C(=O)O)C2SC1 (stereo not drawn) [TAN-592B] | 25 µg/mL (≈ 31.6 µM)

Tested on: Bacillus megaterium IFO 12108
Assay: as above
Format: cell-based
Conditions: Priestia megaterium, IFO12108, hydrochloride, inoculum 1 loopful of about 10^6/ml
Source text: as §2, §3, §4, §5, §6, §7

Structure (SMILES) | MIC
N=C(N)NCCCC(NC(=O)C(CO)NC(=O)C(N)CO)C(O)CC(=O)OCC1=C(C(=O)O)N2C(=O)C(NC=O)(NC(=O)CCCC(N)C(=O)O)C2SC1 (stereo not drawn) [TAN-592B] | 12.5 µg/mL (≈ 15.8 µM)

Tested on: Citrobacter freundii IFO 12681
Assay: as above
Format: cell-based
Conditions: IFO12681, hydrochloride, inoculum 1 loopful of about 10^6/ml
Source text: as §2, §3, §4, §5, §6, §7

Structure (SMILES) | MIC
N=C(N)NCCCC(NC(=O)C(CO)NC(=O)C(N)CO)C(O)CC(=O)OCC1=C(C(=O)O)N2C(=O)C(NC=O)(NC(=O)CCCC(N)C(=O)O)C2SC1 (stereo not drawn) [TAN-592B] | 25 µg/mL (≈ 31.6 µM)

Tested on: Proteus vulgalis IFO 3988
Assay: as above
Format: cell-based
Conditions: hydrochloride, inoculum 1 loopful of about 10^6/ml
Source text: as §2, §3, §4, §5, §6, §7

Structure (SMILES) | MIC
N=C(N)NCCCC(NC(=O)C(CO)NC(=O)C(N)CO)C(O)CC(=O)OCC1=C(C(=O)O)N2C(=O)C(NC=O)(NC(=O)CCCC(N)C(=O)O)C2SC1 (stereo not drawn) [TAN-592B] | 12.5 µg/mL (≈ 15.8 µM)

Tested on: Serratia marcescens IFO 12648
Assay: as above
Format: cell-based
Conditions: IFO12648, hydrochloride, inoculum 1 loopful of about 10^6/ml
Source text: as §2, §3, §4, §5, §6, §7

Structure (SMILES) | MIC
N=C(N)NCCCC(NC(=O)C(CO)NC(=O)C(N)CO)C(O)CC(=O)OCC1=C(C(=O)O)N2C(=O)C(NC=O)(NC(=O)CCCC(N)C(=O)O)C2SC1 (stereo not drawn) [TAN-592B] | 25 µg/mL (≈ 31.6 µM)

Tested on: Acinetobacter calcoaceticus IFO 12552
Assay: as above
Format: cell-based
Conditions: IFO12552, hydrochloride, inoculum 1 loopful of about 10^6/ml
Source text: as §2, §3, §4, §5, §6, §7

Structure (SMILES) | MIC
N=C(N)NCCCC(NC(=O)C(CO)NC(=O)C(N)CO)C(O)CC(=O)OCC1=C(C(=O)O)N2C(=O)C(NC=O)(NC(=O)CCCC(N)C(=O)O)C2SC1 (stereo not drawn) [TAN-592B] | 1.56 µg/mL (≈ 1.97 µM)

Tested on: Alcaligenes faecalis IFO 13111
Assay: as above
Format: cell-based
Conditions: IFO13111, hydrochloride, inoculum 1 loopful of about 10^6/ml
Source text: as §2, §3, §4, §5, §6, §7

Structure (SMILES) | MIC
N=C(N)NCCCC(NC(=O)C(CO)NC(=O)C(N)CO)C(O)CC(=O)OCC1=C(C(=O)O)N2C(=O)C(NC=O)(NC(=O)CCCC(N)C(=O)O)C2SC1 (stereo not drawn) [TAN-592B] | 6.25 µg/mL (≈ 7.9 µM)

Tested on: Pseudomonas aeruginosa IFO 3080
Assay: as above
Format: cell-based
Conditions: IFO3080, hydrochloride, inoculum 1 loopful of about 10^6/ml
Source text: as §2, §3, §4, §5, §6, §7

Structure (SMILES) | MIC
N=C(N)NCCCC(NC(=O)C(CO)NC(=O)C(N)CO)C(O)CC(=O)OCC1=C(C(=O)O)N2C(=O)C(NC=O)(NC(=O)CCCC(N)C(=O)O)C2SC1 (stereo not drawn) [TAN-592B] | > 50 µg/mL

Tested on: Brevibacterium thiogenitalis ATCC 19240
Assay: as above
Format: cell-based
Conditions: Corynebacterium glutamicum, ATCC19240, hydrochloride, inoculum 1 loopful of about 10^6/ml
Source text: as §2, §3, §4, §5, §6, §7

Structure (SMILES) | MIC
N=C(N)NCCCC(NC(=O)C(CO)NC(=O)C(N)CO)C(O)CC(=O)OCC1=C(C(=O)O)N2C(=O)C(NC=O)(NC(=O)CCCC(N)C(=O)O)C2SC1 (stereo not drawn) [TAN-592B] | 6.25 µg/mL (≈ 7.9 µM)

Tested on: not listed separately
Assay: Solubility in solvents
Format: physicochemical
Conditions: dimethylsulfoxide, methanol, acetone, ethyl acetate; hydrochloride

Structure (SMILES) | Solubility
N=C(N)NCCCC(NC(=O)C(CO)NC(=O)C(N)CO)C(O)CC(=O)OCC1=C(C(=O)O)N2C(=O)C(NC=O)(NC(=O)CCCC(N)C(=O)O)C2SC1 (stereo not drawn) [TAN-592B] | Sparingly soluble

Same assay, conditions: water, aqueous acetone, aqueous alcohol; hydrochloride

Structure (SMILES) | Solubility
N=C(N)NCCCC(NC(=O)C(CO)NC(=O)C(N)CO)C(O)CC(=O)OCC1=C(C(=O)O)N2C(=O)C(NC=O)(NC(=O)CCCC(N)C(=O)O)C2SC1 (stereo not drawn) [TAN-592B] | Easily soluble

Tested on: penicillinase
Assay: β-lactamase stability test, growth inhibition zone with penicillinase
Format: cell-based
Conditions: penicillinase added; test organism Escherichia coli PG8; drug 100 μg/ml; nutrient agar pH 7.0
Source text: as §1

Structure (SMILES) | diameter of growth inhibition zone
N=C(N)NCCCC(NC(=O)C(CO)NC(=O)C(N)CO)C(O)CC(=O)OCC1=C(C(=O)O)N2C(=O)C(NC=O)(NC(=O)CCCC(N)C(=O)O)C2SC1 (stereo not drawn) [TAN-592B] | 29 mm

Tested on: Escherichia coli 0-111
Assay: Therapeutic effect to infectious disease in mice
Format: in vivo
Conditions: Escherichia coli, 0111, sc
Source text: The therapeutic effect of TAN-592B.hydrochloride to infectious disease in mice is shown below.
*Intraperitoneal infection
The therapeutic effect of TAN-591A.hydrochloride to infectious disease in mice is shown below.

Structure (SMILES) | ED50
N=C(N)NCCCC(NC(=O)C(CO)NC(=O)C(N)CO)C(O)CC(=O)OCC1=C(C(=O)O)N2C(=O)C(NC=O)(NC(=O)CCCC(N)C(=O)O)C2SC1 (stereo not drawn) [TAN-592B] | 16.2 mg/kg

Tested on: not listed separately
Assay: Toxicity after subcutaneous administration to mice
Format: in vivo
Conditions: dose of 1 g/kg, hydrochloride
Method: When Antibiotic TAN-592B hydrochloride was administered subcutaneously in a dose of 1 g/kg to mice, no death was observed, and therefore Antibiotic TAN-592 is considered to be low in toxicity.
When Antibiotic TAN-591A hydrochloride was administered subcutaneously a dose of 1 g/kg to mice, no death was observed, and therefore Antibiotic TAN-591 is considered to be low in toxicity.

Structure (SMILES) | death
N=C(N)NCCCC(NC(=O)C(CO)NC(=O)C(N)CO)C(O)CC(=O)OCC1=C(C(=O)O)N2C(=O)C(NC=O)(NC(=O)CCCC(N)C(=O)O)C2SC1 (stereo not drawn) [TAN-592B] | no death

Tested on: cephalosporinase
Assay: β-lactamase stability test, growth inhibition zone with cephalosporinase
Format: cell-based
Conditions: cephalosporinase added; test organism Escherichia coli PG8; drug 100 μg/ml; nutrient agar pH 7.0
Source text: as §1

Structure (SMILES) | diameter of growth inhibition zone
N=C(N)NCCCC(NC(=O)C(CO)NC(=O)C(N)CO)C(O)CC(=O)OCC1=C(C(=O)O)N2C(=O)C(NC=O)(NC(=O)CCCC(N)C(=O)O)C2SC1 (stereo not drawn) [TAN-592B] | 29 mm
